Patent US20260335305A1, “METHODS OF USING ITRACONAZOLE DRY POWDERS” (Pulmatrix Operating Company, Inc., priority 2022, published 2026)
Like-named read-outs stand apart in the source and are kept apart here.

Legend:
[1] = Itraconazole subparticle size of milled suspension; format: physicochemical; conditions: water and polysorbate 80, milled at 1800 rpm for one hour
Description: Particle Size Reduction using Low Energy Wet Milling. One technique for reducing the particle size of the itraconazole was via low energy wet milling (also known as roller milling, or jar milling). Suspensions of the itraconazole were prepared in an anti-solvent, which can be water, or any solvent in which the active agent is not appreciably soluble. Stabilizers, which can be, but are not limited to, non-ionic surfactants or amphiphilic polymers, are then added to the suspension along with milling media, which can be, but are not limited to, spherical with high wear resistance and in the size range from 0.03 to 0.70 millimeters in diameter. The vessels containing the suspensions are then rotated using a jar mill (US Stoneware, East Palestine, OH USA) while taking samples periodically to assess particle size (LA-950, HORIBA, Kyoto, Japan).
Particle Size Reduction using High Energy Wet Milling: Another technique for reducing the particle size of the itraconazole was via high-energy wet milling using a rotor-stator, or agitated media mill. Suspensions of the itraconazole were prepared in an anti-solvent, which can be water, or any solvent in which the active agent is not appreciably soluble. […]

[2] = cited from earlier work; for AUC0-24 h / Accumulation ratio AUC0-24 h / Accumulation ratio Cmax / Cmax / Kel / Tmax: inhaled Formulation I
[3] = single inhaled dose of 20 mg of dry powder; cited from earlier work
[4] = test system: CYP3A4; conditions: role: inhibitor; unbound Ki, Simcyp V19 file; cited from earlier work
[5] = cited from earlier work; for RB / fu: Simcyp V19 file
[6] = Day 1, 35 mg inhaled Formulation I QD
[7] = Day 14, 35 mg inhaled Formulation I QD

Structure (SMILES)	AUC0-24 h, observed mean [2, 6]	Cmax, observed mean [2, 6]	AUC0-24 h, observed mean [2, 7]	Cmax, observed mean [2, 7]	AUC0-24 h ([2]; 10 mg)	Accumulation ratio AUC0-24 h ([2]; 10 mg)	Accumulation ratio Cmax ([2]; 10 mg)	Cmax ([2]; 10 mg)	Kel ([2]; 10 mg)	Tmax ([2]; 10 mg)	AUC0-24 h ([2]; 20 mg)	Accumulation ratio AUC0-24 h ([2]; 20 mg)	Accumulation ratio Cmax ([2]; 20 mg)	Cmax ([2]; 20 mg)	Kel ([2]; 20 mg)	Tmax ([2]; 20 mg)	AUC0-24 h ([2]; 35 mg QD for 14 days)	Accumulation ratio AUC0-24 h ([2]; 35 mg QD for 14 days)	Accumulation ratio Cmax ([2]; 35 mg QD for 14 days)	Cmax ([2]; 35 mg QD for 14 days)	other results
CCC(C)n1ncn(-c2ccc(N3CCN(c4ccc(OCC5COC(Cn6cncn6)(c6ccc(Cl)cc6Cl)O5)cc4)CC3)cc2)c1=O (centres unmarked) [Itraconazole, itraconazole]	[…]	5.23 ng/mL	[…]	15.2 ng/mL	[…]	[…]	[…]	[…]	[…]	[…]	[…]	[…]	[…]	[…]	[…]	[…]	[…]	[…]	[…]	15.2 (49.3) ng/mL	final median particle size (Dv(50)) of the milled suspension [1]: […]; Kel ([2]; 35 mg QD for 14 days): […]; Tmax ([2]; 35 mg QD for 14 days): […]; lung exposure [3]: lung exposures that would be considered therapeutic; Ki, u, ITZ [4]: […]; RB [5]: […]; fu [5]: […]
Cc1ncc2n1-c1ccc(Cl)cc1C(c1ccccc1F)=NC2 [Midazolam, midazolam]																					fm ([5]; Simcyp V19 Midazolam File): 0.84
CC(O)C(C)n1ncn(-c2ccc(N3CCN(c4ccc(OCC5COC(Cn6cncn6)(c6ccc(Cl)cc6Cl)O5)cc4)CC3)cc2)c1=O (centres unmarked) [OH-itraconazole]	38.2 ng·h/mL	2.10 ng/mL	168 ng·h/mL	8.68 ng/mL	42.4 (26.1) ng h/mL	3.8	3.5	2.25 (25.3) ng/mL	0.0263 h⁻¹	6 h	128 (56.1) ng h/mL	4.4	4.2	6.43 (54.7) ng/mL	0.0223 h⁻¹	6 h	169 (116) ng h/mL	4.5	4.2	8.68 (91.0) ng/mL	Kel ([2]; 35 mg QD for 14 days): 0.0248 h⁻¹; Tmax ([2]; 35 mg QD for 14 days): 8 h; Ki, u, ITZ [4]: 2.3 nM; RB [5]: 0.58; fu [5]: 0.016
